Read-outs that look alike come from different tables or passages of the source.
How the values were obtained:
HCT116 cells = assay: MTT assay; type: cell-based; conditions: Homo sapiens, HCT116 cells, 72 hours
Summary of the method: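 Read-out: MTT (0.5 mg/ml final, 4 h) after solubilization in 50% DMF/20% SDS, pH 4.7, with OD translated into cell number via the line's growth curve. Compound treatment lasted 72 h at 37 °C in 5% CO2, starting a day after plating.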

[1] = tested on: acetylated histone H-4 in T24 human bladder cancer cells; assay: Histone H4 acetylation in whole cells by immunoblots; type: cell-based; conditions: 16 h
Procedure: T24 human bladder cancer cells growing in culture were incubated with HDAC inhibitors for 16 h. […] of total histone protein was loaded onto SDS/PAGE and transferred to nitrocellulose membranes. Membranes were probed with polyclonal antibodies specific for acetylated histone H-4 (Upstate Biotech Inc.), followed by horse radish peroxidase conjugated secondary antibodies (Sigma). Enhanced Chemiluminescence (ECL) (Amersham) detection was performed using Kodak films (Eastman Kodak). Acetylated H-4 signal was quantified by densitometry.

[2] = target: T1, cloned recombinant human HDAC-1 (Homo sapiens, UniProt Q13547); assay: Human HDAC-1 enzyme inhibition, Assay 1 ([3H]-acetylated histone substrate, scintillation counting); type: biochemical; conditions: read-out: Human HDAC-1 IC50
T1 construct: made in house; host or cells: Baculovirus insect cell expression system
Summary of the method: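 Activity read as [3H]-acetic acid liberated from labeled substrate, ethyl acetate-extracted and scintillation-counted. Compounds preincubated 30 min at 4° C. with baculovirus-expressed, purified human HDAC-1. Dose-response curves give IC50 as concentration producing fifty percent of maximal inhibition.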

[3] = T-24, Table 5a, read-out: H4Ac (T24) EC50
[4] = T-24, Table 5F, read-out: H4 Ac (T24) EC50
[5] = T-24, Table 5d, read-out: H4Ac(T24) EC50

T1 sequence (Q13547 whole entry): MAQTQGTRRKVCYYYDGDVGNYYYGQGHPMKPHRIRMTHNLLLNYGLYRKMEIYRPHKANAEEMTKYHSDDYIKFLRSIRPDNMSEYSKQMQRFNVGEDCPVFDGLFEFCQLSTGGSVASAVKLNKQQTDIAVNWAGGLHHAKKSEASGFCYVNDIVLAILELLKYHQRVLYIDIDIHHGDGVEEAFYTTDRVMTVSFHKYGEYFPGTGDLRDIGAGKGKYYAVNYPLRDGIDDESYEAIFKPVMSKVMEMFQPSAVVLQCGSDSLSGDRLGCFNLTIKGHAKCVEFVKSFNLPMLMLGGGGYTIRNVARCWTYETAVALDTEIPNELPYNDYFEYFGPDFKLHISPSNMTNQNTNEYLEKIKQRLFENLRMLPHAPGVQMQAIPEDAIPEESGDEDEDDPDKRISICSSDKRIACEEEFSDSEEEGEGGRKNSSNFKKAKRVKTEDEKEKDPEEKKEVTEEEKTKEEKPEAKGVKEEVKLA

IC50 (HCT116 cells; HCT-116, 72 h, Table 5a) [nM] | EC50 [1, 3] [nM] | IC50 ([2]; Table 5a) [nM] | EC50 [1, 4] [nM] | SMILES | further results
5000 | 10000 | 600 |  | Nc1nc(CC(=O)N2CCN(Cc3ccc4c(c3)OCO4)CC2)nc(NCc2ccc(C(=O)Nc3ccccc3N)cc2)n1 [18b] | 
 |  |  | 3000 | COc1ccc(NCc2ccc(C(=O)Nc3cscc3N)cc2)cc1OC [424c, N-(4-Aminothiophen-3-yl)-4-[(3,4-dimethoxyphenylamino)-methyl]-benzamide] | IC50 (HCT116 cells; HCT-116, 72 h, Table 5F): 800 nM; IC50 ([2]; Table 5F): 3000 nM
500 | 1000 | 400 |  | Nc1nc(NCc2ccc(C(=O)Nc3ccccc3N)cc2)nc(NC2Cc3ccccc3C2)n1 [Cpd 8, 4-{[4-Amino-6-(2-indanyl-amino)-[1,3,5]-triazin-2-yl-amino]-methyl}-N-(2-amino-phenyl)-benzamide] | 
600 | 1000 | 2000 |  | Nc1nc(NCc2ccc(C(=O)Nc3ccccc3N)cc2)nc(NC2CCc3ccccc32)n1 (centres unmarked) [Cpd 10, 4-{[4-amino-6-(1-indanyl-amino)-[1,3,5]-triazin-2-ylamino]-methyl}-N-(2-amino-phenyl)-benzamide] | 
600 | 2000 | 2000 |  | Nc1nc(NCc2ccc(C(=O)Nc3ccccc3N)cc2)nc(N2CCN(c3ccccc3)CC2)n1 [Cpd 11] | 
2000 | 5000 | 2000 |  | Nc1nc(NCc2ccc(C(=O)Nc3ccccc3N)cc2)nc(NCc2ccccn2)n1 [Cpd 12] | 
1000 | 5000 | 300 |  | Nc1nc(NCc2ccc(C(=O)Nc3ccccc3N)cc2)nc(NC2c3ccccc3-c3ccccc32)n1 [Cpd 14, 4-{[4-Amino-6-(9H-fluoren-9-ylamino)-[1,3,5]triazin-2-ylamino]-methyl)-N-(2-amino-phenyl)-benzamide] | 
 |  |  |  | Nc1nc(Nc2ccc(C(=O)Nc3ccccc3N)cc2)nc(NC2Cc3ccccc3C2)n1 [Cpd 204] | EC50 ([1]; T-24, Table 5b, read-out: H4Ac (T24) EC50): 5000 nM; IC50 ([2]; Table 5b): 4000 nM
 |  |  | 3000 | COc1cc(-c2ccc3sc(NCc4ccc(C(=O)Nc5ccccc5N)cc4)nc3c2)cc(OC)c1OC [Cpd 231] | IC50 ([2]; Table 5F): 4000 nM
 |  |  | 1000 | Nc1ccccc1NC(=O)c1ccc(CNc2nc3cc(Cl)ccc3o2)cc1 [Cpd 320, N-(2-Amino-phenyl)-4-[(5-chloro-benzooxazol-2-ylamino)-methyl]-benzamide] | IC50 ([2]; Table 5F): 2000 nM
 |  |  | 1000 | Nc1ccccc1NC(=O)c1ccc(CNc2nc(Cl)cc(N3CCOCC3)n2)cc1 [Cpd 411, N-(2-Amino-phenyl)-4-[(4-chloro-6-morpholin-4-yl-pyrimidin-2-ylamino)-methyl]-benzamide] | IC50 ([2]; Table 5F): 2000 nM
 |  |  | 2000 | COc1ccc(CNc2ccc(C(=O)Nc3ccccc3N)cc2)cc1OC [Cpd 434, N-(2-Amino-phenyl)-4-(3,4-dimethoxy-benzylamino)-benzamide] | IC50 (HCT116 cells; HCT-116, 72 h, Table 5F): 600 nM
 |  |  | 2000 | COc1ccc(-c2ccnc(NCc3ccc(C(=O)Nc4ccccc4N)cc3)n2)cc1OC [Cpd 440, N-(2-Amino-phenyl)-4-{[4-(3,4-dimethoxy-phenyl)-pyrimidin-2-ylamino]-methyl}-benzamide] | IC50 (HCT116 cells; HCT-116, 72 h, Table 5F): 100 nM
 |  |  |  | COc1cc(NCc2ccc(/C=C/C(=O)Nc3ccccc3N)cn2)cc(OC)c1OC [Cpd 512, N-(2-Amino-phenyl)-3-{6-[(3,4,5-trimethoxy-phenylamino)-methyl]-pyridin-3-yl}-acrylamide] | IC50 (HCT116 cells; HCT-116, Table 5d): 3000 nM; EC50 [1, 5]: 5000 nM
 |  |  |  | COc1ccc(NCc2ccc(/C=C/C(=O)Nc3ccccc3N)cc2)cc1OC [Cpd 542, N-(2-Amino-phenyl)-3-{4-[(3,4-dimethoxy-phenylamino)-methyl]-phenyl}-acrylamide] | IC50 (HCT116 cells; HCT-116, Table 5d): 5000 nM; EC50 [1, 5]: 4000 nM
 |  |  | 5000 | COc1ccc(NCc2ccc(C(=O)Nc3ccccc3O)cc2)cc1OC [Cpd 572, N-(2-hydroxy-phenyl)-4-[(3,4-Dimethoxy-phenylamino)-methyl]-benzamide] | IC50 (HCT116 cells; HCT-116, 72 h, Table 5F): 5000 nM
 |  |  | 1000 | COc1ccc(-c2ccnc(NCc3ccc(C(=O)Nc4ccccc4N)cc3)n2)cn1 [Cpd 578, N-(2-Amino-phenyl)-4-{[4-(6-methoxy-pyridin-3-yl)-pyrimidin-2-ylamino]-methyl}-benzamide] | IC50 (HCT116 cells; HCT-116, 72 h, Table 5F): 100 nM
